Here are results for 29 molecules from patent US8748426B2, “Inhibitors of diacylglycerol acyl transferase” (Piramal Enterprises Limited, priority 2009, dated 2014).

Molecules are shown by their SMILES.

The assay has as its target T1, hDGAT1 (Homo sapiens, UniProt O75907).
T1 sequence (O75907 1-488): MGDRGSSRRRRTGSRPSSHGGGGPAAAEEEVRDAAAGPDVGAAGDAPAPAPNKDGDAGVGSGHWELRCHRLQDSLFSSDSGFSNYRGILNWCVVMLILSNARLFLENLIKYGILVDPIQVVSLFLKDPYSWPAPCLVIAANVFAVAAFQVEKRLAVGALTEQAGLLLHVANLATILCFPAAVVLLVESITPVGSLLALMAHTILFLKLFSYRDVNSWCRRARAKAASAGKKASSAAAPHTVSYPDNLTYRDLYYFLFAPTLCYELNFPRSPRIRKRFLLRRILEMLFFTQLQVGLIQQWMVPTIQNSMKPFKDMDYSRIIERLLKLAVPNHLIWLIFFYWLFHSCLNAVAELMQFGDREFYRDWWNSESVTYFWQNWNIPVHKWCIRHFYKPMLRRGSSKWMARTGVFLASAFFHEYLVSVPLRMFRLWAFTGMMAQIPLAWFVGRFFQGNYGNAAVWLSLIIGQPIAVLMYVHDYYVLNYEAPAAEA
As to the kind of experiment: In-vitro DGAT1 assay (14C oleoyl CoA, hDGAT1 microsomes from Sf9 cells). Conditions: for % Inhibition of hDGAT1: at 1 μM; for inhibition at 1 µM: read-out: % Inhibition of hDGAT1.

Take `CC(C)(C(=O)O)N1Cc2ccc(-c3ccc(NC(=O)c4ccc(-c5ccccc5)cc4)cc3)cc2C1=O` [Example 517, 2-(6-(4-([1,1′-Biphenyl]-4-ylcarboxamido)phenyl)-1-oxoisoindolin-2-yl)-2-methyl propanoic acid]: the “% Inhibition of hDGAT1” value was “++ (>50% Inhibition)”.

As for `CC(C)(C)c1ccc(C(=O)Nc2ccc(-c3ccc4c(c3)C(=O)N(C(C)(C)C(=O)O)C4)cc2)cc1` [Example 519, 2-(6-(4-(4-(tert-Butyl)benzamido)phenyl)-1-oxoisoindolin-2-yl)-2-methyl propanoic acid], the inhibition at 1 µM was over 50%.

Turning to `CC(C)(C(=O)O)N1Cc2ccc(-c3ccc(NC(=O)c4ccc(Cl)cc4)cc3)cc2C1=O` [Example 521, 2-(6-(4-(4-Chlorobenzamido)phenyl)-1-oxoisoindolin-2-yl)-2-methylpropanoic acid], the inhibition at 1 µM was over 50%.

On to `CC(C)(C(=O)O)N1Cc2ccc(-c3ccc(NC(=O)c4ccc(OC(F)(F)F)cc4)cc3)cc2C1=O` [Example 523, 2-Methyl-2-(1-oxo-6-(4-(4-(trifluoromethoxy)benzamido)phenyl)isoindolin-2-yl)propanoic acid], for which the inhibition at 1 µM lay in the range of 10 to 50%.

Regarding `CCCCCc1ccc(C(=O)Nc2ccc(-c3ccc4c(c3)C(=O)N(C(C)(C)C(=O)O)C4)cc2)cc1` [Example 525, 2-Methyl-2-(1-oxo-6-(4-(4-pentylbenzamido)phenyl)isoindolin-2-yl)propanoic acid], the inhibition at 1 µM fell in the range of 10 to 50%.

With `O=C(Nc1ccc(-c2ccc3c(c2)C(=O)N(C2(C(=O)O)CCCC2)C3)cc1)c1ccc(-c2ccccc2)cc1` [Example 529, 1-(6-(4-([1,1′-Biphenyl]-4-ylcarboxamido)phenyl)-1-oxoisoindolin-2-yl)cyclopentane carboxylic acid], the “% Inhibition of hDGAT1” value is “++ (>50% Inhibition)”.

`CC(C)(C)c1ccc(C(=O)Nc2ccc(-c3ccc4c(c3)C(=O)N(C3(C(=O)O)CCCC3)C4)cc2)cc1` [Example 531, 1-(6-(4-(4-(tert-Butyl)benzamido)phenyl)-1-oxoisoindolin-2-yl)cyclopentane carboxylic acid]: the inhibition at 1 µM is over 50%.

As for `O=C(Nc1ccc(-c2ccc3c(c2)C(=O)N(C2(C(=O)O)CCCC2)C3)cc1)c1ccc(Cl)cc1` [Example 533, 1-(6-(4-(4-Chlorobenzamido)phenyl)-1-oxoisoindolin-2-yl)cyclopentane carboxylic acid], the inhibition at 1 µM is over 50%.

Take `O=C(Nc1ccc(-c2ccc3c(c2)C(=O)N(C2(C(=O)O)CCCC2)C3)cc1)c1ccc(OC(F)(F)F)cc1` [Example 535, 1-(1-Oxo-6-(4-(4-(trifluoromethoxy)benzamido)phenyl)isoindolin-2-yl)cyclopentane carboxylic acid]: the inhibition at 1 µM was over 50%.

In the case of `CCCCCc1ccc(C(=O)Nc2ccc(-c3ccc4c(c3)C(=O)N(C3(C(=O)O)CCCC3)C4)cc2)cc1` [Example 537, 1-(1-Oxo-6-(4-(4-pentylbenzamido)phenyl)isoindolin-2-yl)cyclopentane carboxylic acid], the inhibition at 1 µM is over 50%.

Consider `CC(C)[C@H](C(=O)O)N1Cc2ccc(-c3ccc(NC(=O)c4ccc(-c5ccccc5)cc4)cc3)cc2C1=O` [Example 541, (R)-2-(6-(4-([1,1′-Biphenyl]-4-ylcarboxamido)phenyl)-1-oxoisoindolin-2-yl)-3-methylbutanoic acid], for which the “% Inhibition of hDGAT1” value is given as “++ (>50% Inhibition)”.

As to `O=C(Nc1ccc(-c2ccc3c(c2)C(=O)N(C2CCCC(C(=O)O)C2)C3)cc1)c1ccc(-c2ccccc2)cc1` (centres unmarked) [Example 545, 3-(6-(4-([1,1′-Biphenyl]-4-ylcarboxamido)phenyl)-1-oxoisoindolin-2-yl)cyclo hexane carboxylic acid], the “% Inhibition of hDGAT1” value is “++ (>50% Inhibition)”.

Regarding `O=C(Nc1ccc(-c2ccc3c(c2)C(=O)N(C2CCCC(C(=O)O)C2)C3)cc1)c1cccc(Cl)c1` (centres unmarked) [Example 547, 3-(6-(4-(3-Chlorobenzamido)phenyl)-1-oxoisoindolin-2-yl)cyclohexane carboxylic acid], the inhibition at 1 µM was over 50%.

Turning to `O=C(Nc1ccc(-c2ccc3c(c2)C(=O)N(C2CCCC(C(=O)O)C2)C3)cc1)c1ccc(Cl)cc1` (centres unmarked) [Example 549, 3-(6-(4-(4-Chlorobenzamido)phenyl)-1-oxoisoindolin-2-yl)cyclohexane carboxylic acid], the inhibition at 1 µM was over 50%.

With `Cc1oc(-c2ccccc2)nc1C(=O)Nc1ccc(-c2ccc3c(c2)C(=O)N(C2CCCC(C(=O)O)C2)C3)cc1` (centres unmarked) [Example 553, 3-(6-(4-(5-Methyl-2-phenyloxazole-4-carboxamido)phenyl)-1-oxoisoindolin-2-yl)cyclohexanecarboxylic acid], the inhibition at 1 µM is over 50%.

In the case of `O=C(Nc1ccc(-c2ccc3c(c2)C(=O)N(C2CCC(C(=O)O)CC2)C3)cc1)c1ccc(-c2ccccc2)cc1` (centres unmarked) [Example 557, (1r,4r)-4-(6-(4-([1,1′-Biphenyl]-4-ylcarboxamido)phenyl)-1-oxoisoindolin-2-yl)cyclohexanecarboxylic acid], the “% Inhibition of hDGAT1” value is reported as “++ (>50% Inhibition)”.

Take `O=C(Nc1ccc(-c2ccc3c(c2)C(=O)N([C@H]2CC[C@H](C(=O)O)CC2)C3)cc1)c1cccc(Cl)c1` [Example 559, (1r,4r)-4-(6-(4-(3-Chlorobenzamido)phenyl)-1-oxoisoindolin-2-yl)cyclohexane carboxylic acid]: the “% Inhibition of hDGAT1” value is reported as “++ (>50% Inhibition)”.

For the molecule `O=C(Nc1ccc(-c2ccc3c(c2)C(=O)N([C@H]2CC[C@H](C(=O)O)CC2)C3)cc1)c1ccc(Cl)cc1` [Example 561, (1r,4r)-4-(6-(4-(4-Chlorobenzamido)phenyl)-1-oxoisoindolin-2-yl)cyclohexane carboxylic acid], the “% Inhibition of hDGAT1” value is recorded as “+ (10-50% Inhibition)”.

Take `O=C(Nc1ccc(-c2ccc3c(c2)C(=O)N([C@H]2CC[C@H](C(=O)O)CC2)C3)cc1)c1ccc(C(F)(F)F)cc1` [Example 563, (1r,4r)-4-(1-Oxo-6-(4-(4-(trifluoromethyl)benzamido)phenyl)isoindolin-2-yl)cyclohexanecarboxylic acid]: the “% Inhibition of hDGAT1” value is given as “+ (10-50% Inhibition)”.

`O=C(Nc1ccc(-c2ccc3c(c2)C(=O)N(C24C[C@@H]5C[C@@H](CC(C(=O)O)(C5)C2)C4)C3)cc1)c1cccc(Cl)c1` [Example 567, (1r,3s,5R,7S)-3-(6-(4-(3-Chlorobenzamido)phenyl)-1-oxoisoindolin-2-yl)adamantane-1-carboxylic acid]: the “% Inhibition of hDGAT1” value was “+ (10-50% Inhibition)”.

With `O=C(Nc1ccc(-c2ccc3c(c2)C(=O)N(C24C[C@@H]5C[C@@H](CC(C(=O)O)(C5)C2)C4)C3)cc1)c1ccc(Cl)cc1` [Example 569, (1r,3s,5R,7S)-3-(6-(4-(4-Chlorobenzamido)phenyl)-1-oxoisoindolin-2-yl)adamantane-1-carboxylic acid], the “% Inhibition of hDGAT1” value was “+ (10-50% Inhibition)”.

Turning to `O=C(Nc1ccc(-c2ccc3c(c2)C(=O)N(C24C[C@@H]5C[C@@H](CC(C(=O)O)(C5)C2)C4)C3)cc1)c1ccc(C(F)(F)F)cc1` [Example 571, (1r,3s,5R,7S)-3-(1-Oxo-6-(4-(4-(trifluoromethyl)benzamido)phenyl)isoindolin-2-yl)adamantane-1-carboxylic acid], the “% Inhibition of hDGAT1” value was “++ (>50% Inhibition)”.

Turning to `Cc1ccc(C(=O)Nc2ccc(-c3ccc4c(c3)C(=O)N(C35C[C@@H]6C[C@@H](CC(C(=O)O)(C6)C3)C5)C4)cc2)cc1` [Example 572, (1r,3s,5R,7S)-3-(6-(4-(4-Methylbenzamido)phenyl)-1-oxoisoindolin-2-yl)adamantane-1-carboxylic acid], the “% Inhibition of hDGAT1” value is reported as “++ (>50% Inhibition)”.

Take `O=C(Nc1ccc(-c2ccc3c(c2)C(=O)N(C2(C(=O)O)CCC2)C3)cc1)c1ccc(-c2ccccc2)cc1` [Example 576, 1-(6-(4-([1,1′-Biphenyl]-4-ylcarboxamido)phenyl)-1-oxoisoindolin-2-yl)cyclo butanecarboxylic acid]: the “% Inhibition of hDGAT1” value is recorded as “++ (>50% Inhibition)”.

With `O=C(Nc1ccc(-c2ccc3c(c2)C(=O)N(C2(C(=O)O)CCC2)C3)cc1)c1ccc(Cl)cc1` [Example 578, 1-(6-(4-(4-Chlorobenzamido)phenyl)-1-oxoisoindolin-2-yl)cyclobutane carboxylic acid], the inhibition at 1 µM is over 50%.

Take `O=C(Nc1ccc(-c2ccc3c(c2)C(=O)N(C2(C(=O)O)CCC2)C3)cc1)c1ccc(C(F)(F)F)cc1` [Example 580, 1-(1-Oxo-6-(4-(4-(trifluoromethyl)benzamido)phenyl)isoindolin-2-yl)cyclo butane carboxylic acid]: the inhibition at 1 µM was over 50%.

With `Cc1ccc(C(=O)Nc2ccc(-c3ccc4c(c3)C(=O)N(C3(C(=O)O)CCC3)C4)cc2)cc1` [Example 582, 1-(6-(4-(4-Methylbenzamido)phenyl)-1-oxoisoindolin-2-yl)cyclobutane carboxylic acid], the inhibition at 1 µM was over 50%.

`O=C(Nc1ccc(-c2ccc3c(c2)C(=O)N(C2(C(=O)O)CC2)C3)cc1)c1ccc(-c2ccccc2)cc1` [Example 586, 1-(6-(4-([1,1′-Biphenyl]-4-ylcarboxamido)phenyl)-1-oxoisoindolin-2-yl)cyclopropanecarboxylic acid]: the “% Inhibition of hDGAT1” value was “++ (>50% Inhibition)”.

Regarding `O=C(Nc1ccc(-c2ccc3c(c2)C(=O)N(C2(C(=O)O)CC2)C3)cc1)c1ccc(Cl)cc1` [Example 588, 1-(6-(4-(4-Chlorobenzamido)phenyl)-1-oxoisoindolin-2-yl)cyclopropane carboxylic acid], the inhibition at 1 µM was over 50%.

A word on the inhibition: it is how much of the control response was suppressed.
